The supplement of paper PMC9663587

How the values were obtained:
[1] = system: MDAMB330; assay: GRmax, 72 h; higher = less effect;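 note: breast cell lines in 384-well plates, nine doses across a 10^4 range, Dye Drop imaging of viable cells vs DMSO and time-zero plates, GR 0 means no net growth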
[2] = system: HCC202; assay: GRmax, 72 h; higher = less effect;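 note: breast cell lines in 384-well plates, nine doses across a 10^4 range, Dye Drop imaging of viable cells vs DMSO and time-zero plates, GR 0 means no net growth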
[3] = system: SUM190PT; assay: GRmax, 72 h; higher = less effect;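 note: breast cell lines in 384-well plates, nine doses across a 10^4 range, Dye Drop imaging of viable cells vs DMSO and time-zero plates, GR 0 means no net growth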
[4] = system: MCF7; assay: GRmax, 72 h; higher = less effect;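 note: breast cell lines in 384-well plates, nine doses across a 10^4 range, Dye Drop imaging of viable cells vs DMSO and time-zero plates, GR 0 means no net growth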
[5] = system: HCC1806; assay: GRmax, 72 h; higher = less effect
[6] = system: HCC1954; assay: GRmax, 72 h; higher = less effect
[7] = system: BT549; assay: GRmax, 72 h; higher = less effect
[8] = system: SUM44PE; assay: GRmax, 72 h; higher = less effect
[9] = system: SUM185PE; assay: GRmax, 72 h; higher = less effect
[10] = system: HCC1500; assay: area over the GR curve, 72 h; higher = more effect;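 note: Dye Drop or Deep Dye Drop imaging of viable cells in 384-well plates (Hoechst nuclei, LIVE/DEAD dye), nine half-log doses, GR normalized to DMSO controls and time-zero plates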
[11] = system: MDAMB157; assay: area over the GR curve, 72 h; higher = more effect;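 note: Dye Drop or Deep Dye Drop imaging of viable cells in 384-well plates (Hoechst nuclei, LIVE/DEAD dye), nine half-log doses, GR normalized to DMSO controls and time-zero plates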

Row | SMILES | GRmax, 72 h [1] [GR] | GRmax, 72 h [2] [GR] | GRmax, 72 h [3] [GR] | GRmax, 72 h [4] [GR] | GRmax, 72 h [5] [GR] | GRmax, 72 h [6] [GR] | GRmax, 72 h [7] [GR] | GRmax, 72 h [8] [GR] | GRmax, 72 h [9] [GR] | area over the GR curve [10] [GR] | area over the GR curve [11] [GR]
1 | CO[C@H]1C[C@@H]2CC[C@@H](C)[C@@](O)(O2)C(=O)C(=O)N2CCCC[C@H]2C(=O)O[C@H]([C@H](C)C[C@@H]2CC[C@@H](OCCO)[C@H](OC)C2)CC(=O)[C@H](C)/C=C(\C)[C@@H](O)[C@@H](OC)C(=O)[C@H](C)C[C@H](C)/C=C/C=C/C=C/1C [Everolimus] (max 10 µM) | -0.378 | 0.474 | 0.354 | 0.387 | 0.817 | 0.326 | 0.52 | 0.19 | 0.78 | 1.26 | 0.394
2 | CC(C)n1nc(-c2ccc3oc(N)nc3c2)c2c(N)ncnc21 [INK128/MLN0128] (max 3.162 µM) | -0.77 | -0.01 | -0.425 | -0.045 | 0.262 | -0.083 | 0.0717 | -0.523 | 0.139 | 1.23 | 0.514
3 | CC(C)NC[C@@H](C(=O)N1CCN(c2ncnc3c2[C@H](C)C[C@H]3O)CC1)c1ccc(Cl)cc1 [Ipatasertib/GDC0068] (max 10 µM) | -0.657 | 0.306 | 0.525 | 0.25 | 0.945 | 0.251 | 0.496 | -0.0416 | 0.455 | -0.0881 | 0.0813
4 | CCNC(=O)c1noc(-c2cc(C(C)C)c(O)cc2O)c1-c1ccc(CN2CCOCC2)cc1 [Luminespib/NVP-AUY922] (max 1 µM) | -0.344 | 0.115 | -0.433 | 0.0015 | -0.175 | -0.374 | -0.106 | -0.483 | -0.103 | 0.546 | 0.615
5 | CCOc1cc2ncc(C#N)c(Nc3ccc(OCc4ccccn4)c(Cl)c3)c2cc1NC(=O)/C=C/CN(C)C [Neratinib/HKI272] (max 3.162 µM) | -0.655 | 0.0762 | 0.42 | 0.0582 | -0.0883 | -0.0909 | 0.208 | -0.202 | 0.25 | 0.165 | 0.191
6 | O=C(c1cc(Cc2n[nH]c(=O)c3ccccc23)ccc1F)N1CCN(C(=O)C2CC2)CC1 [Olaparib/AZD2281] (max 10 µM) | 0.46 | 0.606 | 0.545 | 0.514 | 0.489 | 0.527 | 0.543 | 0.803 | 0.75 | 0.0931 | 0.115
7 | CC(=O)O[C@H]1C(=O)[C@@]2(C)[C@H]([C@H](OC(=O)c3ccccc3)[C@]3(O)C[C@H](OC(=O)[C@H](O)[C@@H](NC(=O)c4ccccc4)c4ccccc4)C(C)=C1C3(C)C)[C@]1(OC(C)=O)CO[C@@H]1C[C@@H]2O [Paclitaxel] (max 1 µM) | -0.438 | 0.0855 | -0.283 | -0.106 | -0.211 | -0.396 | -0.207 | -0.474 | 0.298 | 0.609 | 0.946
8 | CS(=O)(=O)N1CCN(Cc2cc3nc(-c4cccc5[nH]ncc45)nc(N4CCOCC4)c3s2)CC1 [Pictilisib/GDC0941] (max 10 µM) | -0.817 | -0.0303 | 0.0145 | -0.159 | 0.194 | -0.227 | 0.146 | -0.205 | 0.0142 | 0.203 | 0.258
9 | CN1CCN(CCOc2cc(OC3CCOCC3)c3c(Nc4c(Cl)ccc5c4OCO5)ncnc3c2)CC1 [Saracatinib/AZD0530] (max 10 µM) | 0.0209 | -0.22 | 0.581 | 0.274 | 0.221 | 0.0936 | 0.556 | 0.381 | 0.419 | 0.433 | 0.17
10 | Cc1cc(C(C)Nc2ccccc2)c2nc(N3CCOCC3)cc(=O)n2c1 (stereo unspecified) [TGX221] (max 10 µM) | 0.858 | 0.782 | 0.989 | 0.789 | 0.982 | 0.961 | 0.81 | 1.04 | 0.509 | 0.0613 | -0.005
11 | Cc1nc(-c2cn3c(n2)-c2ccc(-c4cnn(C(C)(C)C(N)=O)c4)cc2OCC3)n(C(C)C)n1 [Taselisib/GDC0032] (max 10 µM) | -0.924 | 0.0192 | -0.253 | -0.255 | -0.0297 | -0.363 | 0.095 | -0.392 | -0.367 | 0.209 | 0.339
12 | O=C1NC(=O)[C@@H](c2cn3c4c(cccc24)CCC3)[C@@H]1c1c[nH]c2ccccc12 [Tivantinib/ARQ197] (max 10 µM) | -0.321 | 0.114 | -0.138 | -0.0512 | -0.218 | -0.385 | -0.265 | -0.338 | 0.169 | 0.491 | 0.388
13 | CC[C@@]1(O)C(=O)OCc2c1cc1n(c2=O)Cc2cc3c(CN(C)C)c(O)ccc3nc2-1 [Topotecan] (max 10 µM) |  |  |  | -0.271 | -0.546 | -0.401 | -0.241 |  |  | 1.22 | 1.08
14 | Nc1ccc(-c2ccc3ncc4ccc(=O)n(-c5cccc(C(F)(F)F)c5)c4c3c2)cn1 [Torin2] (max 1 µM) | -0.84 | 0.0177 | -0.391 | -0.133 | -0.14 | -0.328 | -0.0209 | -0.556 | -0.0832 | 0.888 | 0.41
15 | CC[C@@H]1C(=O)N(C)c2cnc(Nc3ccc(C(=O)N[C@H]4CC[C@H](N5CCN(CC6CC6)CC5)CC4)cc3OC)nc2N1C(C)C [Volasertib/BI6727] (max 1 µM) | -0.261 | 0.224 | -0.309 | -0.0338 | -0.132 | -0.154 | -0.229 | -0.288 | 0.28 | 0.297 | 0.851
16 | O=C(CCCCCCC(=O)Nc1ccccc1)NO [Vorinostat] (max 10 µM) | -0.872 | 0.104 | -0.431 | -0.175 | 0.0178 | -0.14 | 0.113 | -0.427 | 0.222 | 0.301 | 0.297
